Experimental data taken from the CheMixHub viscosity set.

Test: xn = mol fraction of the nth substance listed

Cc1ccccc1C + C1CCCCC1
viscosity [mPa·s], 101 kPa
Details	x1 = 0.0998	x1 = 0.2001	x1 = 0.3	x1 = 0.4	x1 = 0.5	x1 = 0.6	x1 = 0.7001	x1 = 0.7999	x1 = 0.9
303.15 K	0.7647	0.7241	0.6977	0.6817	0.6728	0.6706	0.6735	0.681	0.6924
308.15 K	0.7083	0.6736	0.6511	0.6372	0.6306	0.6289	0.6317	0.639	0.65
313.15 K	0.6583	0.6281	0.6097	0.5979	0.592	0.5919	0.5946	0.6015	0.6118
318.15 K	0.6129	0.5876	0.572	0.5615	0.5568	0.5562	0.5614	0.5679	0.5772
323.15 K	0.5722	0.5508	0.5372	0.5284	0.5247	0.5248	0.5293	0.5365	0.5452

Cc1ccccc1C + C1COCCO1
308.15 K, 101 kPa
Details	viscosity [mPa·s]
x2 = 0.1	0.676
x2 = 0.2	0.699
x2 = 0.3	0.723
x2 = 0.5	0.774
x2 = 0.6	0.806
x2 = 0.7	0.841
x2 = 0.8	0.879
x2 = 0.9	0.922

COCCOCCO + CC1COC(=O)O1
298.15 K, 101.33 kPa
Details	viscosity [mPa·s]
x1 = 0.0342	2.506
x1 = 0.0633	2.515
x1 = 0.0849	2.524
x1 = 0.1101	2.537
x1 = 0.1406	2.548
x1 = 0.1617	2.559
x1 = 0.1739	2.568
x1 = 0.2188	2.601
x1 = 0.2694	2.645
x1 = 0.3234	2.698
x1 = 0.3696	2.751
x1 = 0.3809	2.771
x1 = 0.4421	2.844
x1 = 0.4715	2.886
x1 = 0.5373	2.97
x1 = 0.5688	3.011
x1 = 0.6187	3.063
x1 = 0.6576	3.108
x1 = 0.7503	3.217
x1 = 0.7761	3.248
x1 = 0.7996	3.269
x1 = 0.8142	3.282
x1 = 0.8452	3.313
x1 = 0.9062	3.367
x1 = 0.9414	3.404
x2 = 0.0198	3.432

Cc1ccccc1C + CC1COC(=O)O1
303.15 K, 101.3 kPa
Details	viscosity [mPa·s]
x2 = 0.1383	0.8178
x2 = 0.2653	0.9124
x2 = 0.3824	1.011
x2 = 0.4906	1.12
x2 = 0.5909	1.244
x2 = 0.6842	1.384
x2 = 0.7712	1.547
x2 = 0.8525	1.733
x2 = 0.9286	1.937

CCC#N + CC#N
298 K, 101.33 kPa
Details	viscosity [mPa·s]
x1 = 0.1298	0.35
x1 = 0.2716	0.36
x1 = 0.4271	0.374
x1 = 0.5986	0.384
x1 = 0.7885	0.402

CCCCCCCCCCO + CC#N
viscosity [mPa·s], 101 kPa
Details	298.15 K	303.15 K	308.15 K
x2 = 0.0939	8.794	7.622	6.471
x2 = 0.2005	6.554	5.66	4.934
x2 = 0.301	4.932	4.226	3.648
x2 = 0.3902	3.872	3.394	2.877
x2 = 0.4935	2.848	2.467	2.15
x2 = 0.6249	1.83	1.678	1.441
x2 = 0.7216	1.302	1.189	1.053
x2 = 0.7933	1.021	0.864	0.777
x2 = 0.8544	0.79	0.636	0.586
x2 = 0.9006	0.548	0.51	0.479
x2 = 0.9382	0.46	0.431	0.411
x2 = 0.9708	0.395	0.379	0.358
